# From paper PMC10763179 (Open access Macedonian journal of medical sciences, 2023)
# Legend:
# [1] = tested on: larvae of marine crustaceans Artemia salina (Leach); test: Brine shrimp toxicity bioassay; type: in vivo; conditions: 24 h of exposure
# HL-60(TB) = test: NCI60 screen; type: cell-based; conditions: Homo sapiens, HL-60, read-out: inhibition of cell growth
# K-562 = test: NCI60 screen; type: cell-based; conditions: Homo sapiens, K562, read-out: inhibition of cell growth
# SR = test: NCI60 screen; type: cell-based; conditions: Homo sapiens, read-out: inhibition of cell growth
# COLO 205 = test: NCI60 screen; type: cell-based; conditions: Homo sapiens, COLO 205, read-out: inhibition of cell growth
# HCT-116 = test: NCI60 screen; type: cell-based; conditions: Homo sapiens, HCT-116, read-out: inhibition of cell growth
# HCT-15 = test: NCI60 screen; type: cell-based; conditions: Homo sapiens, HCT-15, read-out: inhibition of cell growth
# HT29 = test: NCI60 screen; type: cell-based; conditions: Homo sapiens, HT-29, read-out: inhibition of cell growth
# SW-620 = test: NCI60 screen; type: cell-based; conditions: Homo sapiens, SW-620, read-out: inhibition of cell growth
# MDA-MB-435 = test: NCI60 screen; type: cell-based; conditions: Homo sapiens, MDA-MB-435, read-out: inhibition of cell growth
# UACC-257 = test: NCI60 screen; type: cell-based; conditions: Homo sapiens, UACC-257, read-out: inhibition of cell growth
# UACC-62 = test: NCI60 screen; type: cell-based; conditions: Homo sapiens, UACC-62, read-out: inhibition of cell growth
# OVCAR-3 = test: NCI60 screen; type: cell-based; conditions: Homo sapiens, OVCAR-3, read-out: inhibition of cell growth
# CAKI-1 = test: NCI60 screen; type: cell-based; conditions: Homo sapiens, CAKI-1, read-out: inhibition of cell growth
# RXF 393 = test: NCI60 screen; type: cell-based; conditions: Homo sapiens, RXF 393, read-out: inhibition of cell growth
# TK-10 = test: NCI60 screen; type: cell-based; conditions: Homo sapiens, TK-10, read-out: inhibition of cell growth
# DU-145 = test: NCI60 screen; type: cell-based; conditions: Homo sapiens, DU-145, read-out: inhibition of cell growth
# MCF7 = test: NCI60 screen; type: cell-based; conditions: Homo sapiens, MCF7, read-out: inhibition of cell growth
# BT-549 = test: NCI60 screen; type: cell-based; conditions: Homo sapiens, BT-549, read-out: inhibition of cell growth
# T-47D = test: NCI60 screen; type: cell-based; conditions: Homo sapiens, T47D, read-out: inhibition of cell growth
# [2] = tested on: NCI60 human tumor cell lines; test: NCI60 screen; type: cell-based
# [3] = Immunosuppressive activity
compound,measurement,setting,value
"CC1=CCC23OC2(C)CCC2C(CN(C)C)C(=O)OC2C13.Cl (stereo not drawn) [13-dimethylamino-1,10β-epoxy-5,7α,6, 11 β(H)-guai-3,4-ene-6,12-olide hydrochloride, reference compound]",LD500,[1],20.6 mg/mL
"C=C1C(=O)O[C@@H]2[C@H]3C(C)=CC[C@@]34O[C@@]4(C)CC[C@@H]12 [Arglabin 6, arglabin]",inhibition at 8.3 µM,HL-60(TB),97.4%
same,inhibition at 8.3 µM,K-562,73.8%
same,inhibition at 8.3 µM,SR,97.8%
same,inhibition at 8.3 µM,COLO 205,57.6%
same,inhibition at 8.3 µM,HCT-116,82.6%
same,inhibition at 8.3 µM,HCT-15,75.4%
same,inhibition at 8.3 µM,HT29,59.3%
same,inhibition at 8.3 µM,SW-620,70.9%
same,inhibition at 8.3 µM,MDA-MB-435,65.8%
same,inhibition at 8.3 µM,UACC-257,55.9%
same,inhibition at 8.3 µM,UACC-62,74.2%
same,inhibition at 8.3 µM,OVCAR-3,69.6%
same,inhibition at 8.3 µM,CAKI-1,73.4%
same,inhibition at 8.3 µM,RXF 393,67.3%
same,inhibition at 8.3 µM,TK-10,94.3%
same,inhibition at 8.3 µM,DU-145,88.5%
same,inhibition at 8.3 µM,MCF7,71.1%
same,inhibition at 8.3 µM,BT-549,72.1%
same,inhibition at 8.3 µM,T-47D,73.5%
same,inhibition at 8.3 µM,"[2]; Homo sapiens, read-out: average value of cell growth inhibition for all 60 NCI60 human tumor cell lines",45.9%
same,"Mean tumor cell growth, %","[2]; mean over NCI60 panel, single dose 8.3 μM",54.15%
same,depressant effect on hematopoiesis,Effect on hematopoiesis,does not have a depressant effect on hematopoiesis
same,immunosuppressive activity,[3],does not exhibit immunosuppressive activity
C[S+](C)[O-] [dimethyl sulfoxide],LD500,[1],930.27 mg/mL
hydroxyarglabin acetate [hydroxyarglabin acetate 12],IC50 against the larvae of Artemia salina,[1],77.8 µg/mL
same,LD500,[1],77.8 mg/mL
